The target in assay [1] is T1, Tyrosine-protein phosphatase non-receptor type 1 (Homo sapiens, UniProt P18031).
T1 sequence (P18031 whole entry): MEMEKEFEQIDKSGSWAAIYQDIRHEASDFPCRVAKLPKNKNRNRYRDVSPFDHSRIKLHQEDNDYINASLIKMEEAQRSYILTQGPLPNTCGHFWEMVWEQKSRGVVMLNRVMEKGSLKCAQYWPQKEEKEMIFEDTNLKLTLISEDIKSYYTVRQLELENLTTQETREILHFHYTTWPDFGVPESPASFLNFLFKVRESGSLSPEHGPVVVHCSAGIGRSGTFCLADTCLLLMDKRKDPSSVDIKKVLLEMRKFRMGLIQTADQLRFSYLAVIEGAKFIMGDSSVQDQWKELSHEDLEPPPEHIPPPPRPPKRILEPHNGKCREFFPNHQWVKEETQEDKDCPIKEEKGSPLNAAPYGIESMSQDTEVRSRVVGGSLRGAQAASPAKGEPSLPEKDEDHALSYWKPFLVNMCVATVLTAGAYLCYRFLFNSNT
Put plainly: Inhibition of recombinant PTP1B (unknown origin) using pNPP as substrate incubated for 30 mins.

Assay [2] concerns the target T2, Tyrosine-protein phosphatase non-receptor type 1 (Homo sapiens) (UniProt P18031).
T2 sequence (whole entry): T1 sequence (P18031 whole entry)
In words: Inhibition of recombinant PTP1B (unknown origin) using pNPP as substrate at 25 uM incubated for 30 mins relative to control.

Assay [3] deals with T3, Tyrosine-protein phosphatase non-receptor type 11 (Homo sapiens) (UniProt Q06124).
T3 sequence (whole entry): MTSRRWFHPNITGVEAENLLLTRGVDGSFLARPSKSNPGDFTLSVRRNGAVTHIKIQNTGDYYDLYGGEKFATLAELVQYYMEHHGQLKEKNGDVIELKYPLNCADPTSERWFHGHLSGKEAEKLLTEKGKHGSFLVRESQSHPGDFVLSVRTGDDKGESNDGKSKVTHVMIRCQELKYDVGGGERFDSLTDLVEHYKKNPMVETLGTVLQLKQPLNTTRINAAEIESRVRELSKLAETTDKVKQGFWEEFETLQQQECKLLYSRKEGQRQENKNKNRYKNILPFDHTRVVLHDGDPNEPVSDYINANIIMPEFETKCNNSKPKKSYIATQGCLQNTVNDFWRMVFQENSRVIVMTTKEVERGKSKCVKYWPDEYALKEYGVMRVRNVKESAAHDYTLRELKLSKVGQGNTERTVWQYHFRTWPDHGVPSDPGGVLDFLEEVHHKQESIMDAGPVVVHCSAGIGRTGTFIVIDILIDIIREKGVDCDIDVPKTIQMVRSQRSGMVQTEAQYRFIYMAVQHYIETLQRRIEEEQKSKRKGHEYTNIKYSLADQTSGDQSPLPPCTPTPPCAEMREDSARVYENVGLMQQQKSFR
Put plainly: Inhibition of human SHP2 using pNPP as substrate at 25 uM incubated for 30 mins relative to control.

Assay [4] has as its target T4, Tyrosine-protein phosphatase non-receptor type 2 (Homo sapiens, UniProt P17706).
T4 sequence (P17706 whole entry): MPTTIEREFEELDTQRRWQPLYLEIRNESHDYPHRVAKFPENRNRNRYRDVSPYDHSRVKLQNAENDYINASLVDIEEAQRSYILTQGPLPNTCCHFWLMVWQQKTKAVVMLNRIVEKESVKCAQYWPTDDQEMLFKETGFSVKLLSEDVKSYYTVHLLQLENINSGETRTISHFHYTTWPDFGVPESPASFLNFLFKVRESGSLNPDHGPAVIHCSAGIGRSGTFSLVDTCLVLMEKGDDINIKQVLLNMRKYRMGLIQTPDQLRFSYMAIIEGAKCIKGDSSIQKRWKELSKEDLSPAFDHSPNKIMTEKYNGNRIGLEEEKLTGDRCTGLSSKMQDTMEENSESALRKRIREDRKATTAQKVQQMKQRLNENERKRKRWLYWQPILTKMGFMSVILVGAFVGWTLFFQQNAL
Put plainly: Inhibition of human TCPTP using pNPP as substrate incubated for 30 mins.

For assay [5], the target named is T5, Tyrosine-protein phosphatase non-receptor type 6 (Homo sapiens, UniProt P29350). In words: Inhibition of human SHP1 using pNPP as substrate incubated for 30 mins.
Assay [6] addresses T6, Receptor-type tyrosine-protein phosphatase F (Homo sapiens, UniProt P10586). Put plainly: Inhibition of human LAR using pNPP as substrate at 25 uM incubated for 30 mins relative to control.
The species entered for assay [7] is Homo sapiens. Put plainly: Selectivity ratio of IC50 for human SHP1 to IC50 for recombinant PTP1B (unknown origin).
In assay [8] the target is T6, Receptor-type tyrosine-protein phosphatase F. In words: Inhibition of human LAR using pNPP as substrate incubated for 30 mins.
Assay [9] concerns CHO. Put plainly: Inhibition of PTP1B in CHO cells expressing human IR assessed as increase in insulin-mediated IR-beta phosphorylation at tyrosine residue 20 at 15 to 30 uM preincubated for 4 hrs followed by insulin stimulation measured after 10 mins by western blot analysis. Particulars: Cricetulus griseus. The format is cell-based. For orientation: A western blot detects proteins with antibodies after separation by electrophoresis.

Assay [10] deals with T7, Tyrosine-protein phosphatase non-receptor type 11 (Homo sapiens, UniProt Q06124).
T7 sequence (Q06124 whole entry): T3 sequence (whole entry)
Put plainly: Inhibition of human SHP2 using pNPP as substrate incubated for 30 mins.

Assay [11] addresses T8, Tyrosine-protein phosphatase non-receptor type 1 (Rattus norvegicus) (UniProt P20417).
T8 sequence (whole entry): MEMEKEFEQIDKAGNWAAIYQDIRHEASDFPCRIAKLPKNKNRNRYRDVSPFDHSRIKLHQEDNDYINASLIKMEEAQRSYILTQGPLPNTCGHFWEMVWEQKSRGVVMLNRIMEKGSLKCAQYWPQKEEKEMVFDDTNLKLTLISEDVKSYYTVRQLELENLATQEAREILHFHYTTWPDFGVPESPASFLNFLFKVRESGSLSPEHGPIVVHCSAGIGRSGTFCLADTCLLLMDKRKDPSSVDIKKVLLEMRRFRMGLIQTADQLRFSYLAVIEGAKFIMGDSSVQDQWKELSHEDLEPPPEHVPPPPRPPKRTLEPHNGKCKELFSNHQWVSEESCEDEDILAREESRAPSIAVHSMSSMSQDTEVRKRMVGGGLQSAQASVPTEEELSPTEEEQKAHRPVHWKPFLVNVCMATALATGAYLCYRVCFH
In words: Inhibition of PTP1B in rat L6 cells assessed as increase in insulin-stimulated 2-NBDG uptake at 10 uM preincubated for 4 hrs followed by insulin stimulation for 10 mins and subsequent addition of 2-NBDG measured after 30 mins by fluorescence assay relative to control. The format is cell-based. Set-up: scale not given: the % may be the effect or the level left.

Assay [12] has as its target T8, Tyrosine-protein phosphatase non-receptor type 1 (Rattus norvegicus). Put plainly: Inhibition of PTP1B in rat L6 cells assessed as increase in insulin-stimulated 2-NBDG uptake at 20 uM preincubated for 4 hrs followed by insulin stimulation for 10 mins and subsequent addition of 2-NBDG measured after 30 mins by fluorescence assay relative to control. The format is cell-based. More on the design: scale not given: the % may be the effect or the level left.

Assay [13] shares this target. Put plainly: Inhibition of PTP1B in rat L6 cells assessed as increase in insulin-stimulated 2-NBDG uptake at 5 uM preincubated for 4 hrs followed by insulin stimulation for 10 mins and subsequent addition of 2-NBDG measured after 30 mins by fluorescence assay relative to control. The format is cell-based. More on the design: scale not given: the % may be the effect or the level left.

Assay [14] has as its target T5, Tyrosine-protein phosphatase non-receptor type 6. In words: Inhibition of human SHP1 using pNPP as substrate at 25 uM incubated for 30 mins relative to control.
The target of assay [15] is T9, Tyrosine-protein phosphatase non-receptor type 2 (Homo sapiens) (UniProt P17706).
T9 sequence (whole entry): T4 sequence (P17706 whole entry)
Put plainly: Inhibition of human TCPTP using pNPP as substrate at 25 uM incubated for 30 mins relative to control.

Activity calls are given as the source filed them. No cut-off for these calls is given here.

T6 sequence (P10586 whole entry): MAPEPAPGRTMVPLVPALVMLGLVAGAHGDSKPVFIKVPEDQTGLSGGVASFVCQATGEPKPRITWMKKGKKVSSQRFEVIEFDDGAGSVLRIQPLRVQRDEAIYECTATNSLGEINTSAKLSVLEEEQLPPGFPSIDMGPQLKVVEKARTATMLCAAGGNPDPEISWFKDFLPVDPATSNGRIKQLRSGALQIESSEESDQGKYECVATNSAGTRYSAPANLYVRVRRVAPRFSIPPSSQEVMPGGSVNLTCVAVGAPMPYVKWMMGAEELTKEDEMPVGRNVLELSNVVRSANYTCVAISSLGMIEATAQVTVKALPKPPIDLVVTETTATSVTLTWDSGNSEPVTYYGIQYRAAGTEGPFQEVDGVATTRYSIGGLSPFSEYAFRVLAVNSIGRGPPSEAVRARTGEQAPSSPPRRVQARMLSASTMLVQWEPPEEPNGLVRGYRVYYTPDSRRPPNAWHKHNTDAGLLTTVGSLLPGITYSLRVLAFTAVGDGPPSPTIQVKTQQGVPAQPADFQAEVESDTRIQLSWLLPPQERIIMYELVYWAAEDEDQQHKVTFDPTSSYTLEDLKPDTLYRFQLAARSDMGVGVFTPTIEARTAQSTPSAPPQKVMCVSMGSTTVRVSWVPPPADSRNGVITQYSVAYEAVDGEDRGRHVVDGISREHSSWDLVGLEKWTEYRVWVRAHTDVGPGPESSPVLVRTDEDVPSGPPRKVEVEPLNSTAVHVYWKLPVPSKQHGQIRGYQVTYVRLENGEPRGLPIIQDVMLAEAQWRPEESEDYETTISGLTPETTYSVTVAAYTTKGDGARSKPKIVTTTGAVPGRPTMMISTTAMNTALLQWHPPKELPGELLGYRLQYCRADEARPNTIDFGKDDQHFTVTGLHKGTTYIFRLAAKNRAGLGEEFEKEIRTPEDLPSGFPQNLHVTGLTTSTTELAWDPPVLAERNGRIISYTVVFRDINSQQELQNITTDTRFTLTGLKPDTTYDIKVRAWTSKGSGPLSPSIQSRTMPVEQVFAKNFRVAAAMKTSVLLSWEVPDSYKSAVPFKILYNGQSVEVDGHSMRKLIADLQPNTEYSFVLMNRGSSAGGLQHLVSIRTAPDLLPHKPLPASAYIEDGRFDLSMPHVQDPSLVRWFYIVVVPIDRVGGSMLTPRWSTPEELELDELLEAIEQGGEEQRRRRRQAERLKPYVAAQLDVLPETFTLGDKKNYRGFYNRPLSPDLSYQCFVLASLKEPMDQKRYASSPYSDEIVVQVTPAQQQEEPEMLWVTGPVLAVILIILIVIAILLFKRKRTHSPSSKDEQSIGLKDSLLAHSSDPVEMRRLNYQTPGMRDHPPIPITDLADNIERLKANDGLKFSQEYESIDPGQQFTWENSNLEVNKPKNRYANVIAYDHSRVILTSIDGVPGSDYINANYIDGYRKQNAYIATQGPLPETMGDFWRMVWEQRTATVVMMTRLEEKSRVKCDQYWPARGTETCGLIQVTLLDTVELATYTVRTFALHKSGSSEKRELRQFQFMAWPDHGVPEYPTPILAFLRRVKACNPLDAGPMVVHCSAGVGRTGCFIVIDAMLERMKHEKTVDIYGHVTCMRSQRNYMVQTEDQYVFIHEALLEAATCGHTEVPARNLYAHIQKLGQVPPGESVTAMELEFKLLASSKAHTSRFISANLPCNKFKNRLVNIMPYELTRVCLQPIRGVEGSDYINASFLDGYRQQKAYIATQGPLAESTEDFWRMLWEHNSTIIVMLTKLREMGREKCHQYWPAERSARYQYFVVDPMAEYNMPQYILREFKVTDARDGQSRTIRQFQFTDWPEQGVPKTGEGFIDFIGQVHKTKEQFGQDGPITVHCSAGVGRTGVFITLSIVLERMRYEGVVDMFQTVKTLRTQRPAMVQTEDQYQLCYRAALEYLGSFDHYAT
T5 sequence (P29350 whole entry): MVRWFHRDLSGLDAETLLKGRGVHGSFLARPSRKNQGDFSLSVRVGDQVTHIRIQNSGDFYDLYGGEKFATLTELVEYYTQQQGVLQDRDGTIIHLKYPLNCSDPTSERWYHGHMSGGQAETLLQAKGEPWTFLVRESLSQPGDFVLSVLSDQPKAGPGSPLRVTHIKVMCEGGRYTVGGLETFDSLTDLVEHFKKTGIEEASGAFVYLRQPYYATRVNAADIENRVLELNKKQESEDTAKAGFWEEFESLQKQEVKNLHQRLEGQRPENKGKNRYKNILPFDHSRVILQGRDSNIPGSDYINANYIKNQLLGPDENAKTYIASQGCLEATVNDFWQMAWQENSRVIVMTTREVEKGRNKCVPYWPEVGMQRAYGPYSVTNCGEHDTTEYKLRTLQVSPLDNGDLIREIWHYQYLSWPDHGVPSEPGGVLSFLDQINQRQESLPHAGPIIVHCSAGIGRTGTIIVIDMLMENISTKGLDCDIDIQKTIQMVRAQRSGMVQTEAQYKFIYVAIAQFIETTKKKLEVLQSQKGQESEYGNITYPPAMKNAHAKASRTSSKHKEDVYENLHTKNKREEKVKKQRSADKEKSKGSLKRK

As a reminder, the IC50 is the concentration at which inhibition is half-maximal. For the compound `COC(=O)CN(c1ccc(CN(c2ccc(OCc3ccccc3)cc2)S(=O)(=O)Cc2ccccc2)cc1)S(C)(=O)=O`, the IC50 in assay [1] is 16000 nM.

The inhibition is how much of the control response was suppressed. As for `COC(=O)CN(c1ccc(CN(c2ccc(OCc3cccc(C)c3)c(C(=O)OC)c2)S(=O)(=O)Cc2ccccc2)cc1)S(C)(=O)=O`, the inhibition in assay [2] is less than 50%.

As to `COC(=O)CN(c1ccc(CN(c2ccc(OCc3ccccc3)c(C(=O)OC)c2)S(=O)(=O)Cc2ccccc2)cc1)S(C)(=O)=O`, the inhibition in assay [3] and in assay [6] was less than 50% throughout. Further, the IC50 in assay [4] is 427 nM; in [1], 355 nM; in assay [5], 6460 nM. In addition, the Ratio IC50 in assay [7] amounted to 18.

As to `COC(=O)CN(c1ccc(CN(c2ccc(OCc3ccc(C)cc3)c(C(=O)OC)c2)S(=O)(=O)Cc2ccccc2)cc1)S(C)(=O)=O`, the IC50 in assay [8] is 12600 nM; in [4] it was 760 nM; in assay [1], 50 nM; in assay [10], 2160 nM; in assay [5], 2450 nM. Moreover, the inhibition result in assay [9] is “Active”. Moreover, the Activity in assay [11] came out at 19%; in assay [12], 38.1%; in assay [13] it was 16%. Also, the Ratio IC50 in [7] was determined as 49.

With `CC1(C)CC[C@]2(C(=O)O)CC[C@]3(C)C(=CC[C@@H]4[C@@]5(C)CC[C@H](O)C(C)(C)[C@@H]5CC[C@]43C)[C@@H]2C1` [OLEANOLIC_ACID], the IC50 in assay [8] worked out at 22300 nM; in [10], 11600 nM.

For `CCCOc1ccc(N(Cc2ccc(N(CC(=O)OC)S(C)(=O)=O)cc2)S(=O)(=O)Cc2ccccc2)cc1C(=O)OC`, the inhibition in assay [3], in [6], in assay [14] and in assay [15] was less than 50% in each case. Also, the IC50 in assay [1] is 936 nM. Besides, the Activity in assay [11] worked out at 26.1%; in assay [12] it was 27.7%; in [13] it was 6.9%.

In the case of `CCOc1ccc(N(Cc2ccc(N(CC(=O)OC)S(C)(=O)=O)cc2)S(=O)(=O)Cc2ccccc2)cc1C(=O)OC`, the inhibition in assay [2] was less than 50%.

As to `CCCCOc1ccc(N(Cc2ccc(N(CC(=O)OC)S(C)(=O)=O)cc2)S(=O)(=O)Cc2ccccc2)cc1C(=O)OC`, the IC50 in [1] is 4830 nM.

(Values after ChEMBL document CHEMBL3822399, “Discovery of novel, high potent, ABC type PTP1B inhibitors with TCPTP selectivity and cellular activity” (Eur J Med Chem, 2016).)
